This note sets out measurements from patent US20030176390A1, “Methods of treating insulin resistance syndrome and diabetes” (priority 2001, published 2003).

As usually defined, the melting point is the temperature of the solid-liquid transition.

Each structure is given as a SMILES string.

For `COC[C@H]1O[C@@H](n2cnc3c(N[C@H]4CCN(c5ccc(C(F)(F)F)cn5)C4)ncnc32)[C@H](O)[C@@H]1O` [Example 23, (2R,3R,4S,5R) -5-methoxymethyl-2-[6-[1-(5-trifluoromethylpyridin-2-yl)-pyrrolidin-3(S)-ylamino]-purin-9-yl]tetrahydrofuran-3,4-diol], the melting point is 198 to 200 °C.

On to `OC[C@H]1O[C@@H](n2cnc3c(N[C@H]4CCN(c5ccc(Cl)cn5)C4)ncnc32)[C@H](O)[C@@H]1O` [Example 8, (2R,3R,4S,5R)-5-hydroxymethyl-2-[6-[1-(5-chloropyridin-2-yl)-pyrrolidin-3(S)-ylamino]-purin-9-yl]-tetrahydrofuran-3,4-diol], for which the melting point was in the range of 154 to 156 °C.

For `Cc1ccc(N2CC[C@H](Nc3ncnc4c3ncn4[C@@H]3O[C@H](CO)[C@@H](O)[C@H]3O)C2)nc1` [Example 17, (2R,3R,4S,5R)-5-hydroxymethyl-2-[6-[1-(5-methylpyridin-2-yl)-pyrrolidin-3(S)-ylamino]-purin-9-yl]tetrahydrofuran-3,4-diol], the melting point was in the range of 164 to 166 °C.

Take `OC[C@H]1O[C@@H](n2cnc3c(N[C@H]4CCN(c5ccc(Cl)cc5)C4)ncnc32)[C@H](O)[C@@H]1O` [Example 16, (2R,3R,4S,5R)-5-hydroxymethyl-2-[6-[1-(4-chlorophenyl)-pyrrolidin-3(S)-ylamino]-purin-9-yl]-tetrahydrofuran-3,4-diol]: the melting point lay within 121 to 124 °C.

`COC[C@H]1C[C@@H](n2cnc3c(N[C@H]4CCN(Cc5ccccc5)C4)ncnc32)[C@H](O)[C@@H]1O` [Example 60, (1R,2S,3R,5R)-3-[6-(1-benzyl-pyrrolidin-3(S)-ylamino)purin-9-yl]-5-methoxymethylcyclopentane-1,2-diol] yielded a melting point of 95 to 96 °C.

As to `COC[C@H]1C[C@@H](n2cnc3c(N[C@H]4CCN(c5ccccc5)C4)ncnc32)[C@H](O)[C@@H]1O` [Example 58, (1R,2S,3R,5R)-5-methoxymethyl-3-[6-[1-phenylpyrrolidin-3-(S)-ylamino]-purin-9-yl]cyclopentan-1,2-diol], the melting point stood at 106 °C.

Compound `OC[C@H]1O[C@@H](n2cnc3c(N[C@H]4CCN(c5ccccn5)C4)ncnc32)[C@H](O)[C@@H]1O` [Example 15, (2R,3R,4S,5R)-5-hydroxymethyl-2-[6-(1-pyridin-2-ylpyrrolidin-3(S)-ylamino]-purin-9-yl]tetrahydrofuran-3,4-diol] showed a melting point of 193 to 195 °C.

Compound `OC[C@H]1O[C@@H](n2cnc3c(N[C@H]4CCN(c5cc(C(F)(F)F)ccn5)C4)ncnc32)[C@H](O)[C@@H]1O` [Example 10, (2R,3R,4S,5R)-5-hydroxymethyl-2-[6-[1-(4-trifluoromethylpyridin-2-yl)-pyrrolidin-3(S)-ylamino]-purin-9-yl]tetrahydrofuran-3,4-diol] had a melting point of 187 to 190 °C.

`O=[N+]([O-])c1ccc(N2CC[C@H](Nc3ncnc4c3ncn4[C@@H]3O[C@H](CO)[C@@H](O)[C@H]3O)C2)cc1` [Example 12, (2R,3R,4S,5R)-5-hydroxymethyl-2-(6-(1-(4-nitrophenyl)-pyrrolidin-3(S)-ylamino)-purin-9-yl) tetrahydrofuran-3,4-diol] returned a melting point of 230 to 232 °C.

Turning to `CC(C)OC[C@H]1C[C@@H](n2cnc3c(N[C@H]4CCN(c5ccc(C(F)(F)F)cn5)C4)ncnc32)[C@H](O)[C@@H]1O` [Example 49, (1R,2S,3R,5R)-5-isopropoxymethyl-3-[6-[1-(5-trifluoromethylpyridin2-yl)pyrrolidin-3(S)-ylamino]-purin-9-yl]cyclopentane-1,2-diol], the melting point was 157 to 158 °C.

On to `COC[C@H]1C[C@@H](n2cnc3c(N[C@H]4CCN(c5cc(OC)ncn5)C4)ncnc32)[C@H](O)[C@@H]1O` [Example 48, (1R,2S,3R,5R)-5-methoxymethyl-3-[6-[1-(6-methoxypyrimidin-4-yl)pyrrolidin-3(S)-ylamino]-purin-9-yl]cyclopentane-1,2-diol], for which the melting point was 118 to 120 °C.

Regarding `OC[C@H]1C[C@@H](n2cnc3c(N[C@H]4CCN(c5cnc6ccccc6c5)C4)ncnc32)[C@H](O)[C@@H]1O` [Example 36, (1R,2S,3R,5R)-5-hydroxymethyl-3-[6-[1-(quinolin-3-yl)pyrrolidin-3(S)-ylamino]-purin-9-yl]cyclopentane-1,2-diol], the melting point fell in the range of 135 to 138 °C.

Consider `OC[C@H]1C[C@@H](n2cnc3c(N[C@@H]4CCNC4)ncnc32)[C@H](O)[C@@H]1O` [Example 28, (1R,2S,3R,5R)-5-hydroxymethyl-3-[6-((3R)-pyrrolidin-3-ylamino)-purin-9-yl]cyclopentane-1,2-diol], for which the melting point was 166 °C (dec.).

Compound `CSc1ccc(N2CC[C@H](Nc3ncnc4c3ncn4[C@@H]3O[C@H](CO)[C@@H](O)[C@H]3O)C2)nc1` [Example 19, (2R,3R,4S,5R)-5-hydroxymethyl-2-[6-[1-(5-methylmercaptopyridin-2-yl)-pyrrolidin-3(S)-ylamino]-purin-9-yl]tetrahydrofuran-3,4-diol] had a melting point of 231 to 233 °C.

Consider `CC[C@@H](C)NC(=O)[C@H]1C[C@@H](n2cnc3c(N[C@H]4CCN(c5ccc(C(F)(F)F)cn5)C4)ncnc32)[C@H](O)[C@@H]1O` [Example 62, (1S,2R,3S,4R)-2,3-dihydroxy-4-{6-[1-(5-trifluoromethyl-pyridin-2-yl)-pyrrolidin-3(S)-ylamino]-purin-9-yl}-cyclopentanecarboxylic acid-1(R)-methylpropylamide], for which the melting point was 206 to 212 °C (dec.).

As to `O=[N+]([O-])c1ccc(N2CCC(Nc3ncnc4c3ncn4[C@@H]3C[C@H](CO)[C@@H](O)[C@H]3O)CC2)cc1` [Example 25, (1R,2S,3R,5R)-5-hydroxymethyl-3-[6-[1-(4-nitrophenyl)piperidin-4-ylamino]-purin-9-yl]cyclopentane-1,2-diol], the melting point lay in the range of 126 to 128 °C.

As for `OC[C@H]1C[C@@H](n2cnc3c(N[C@H]4CCN(Cc5ccccc5)C4)ncnc32)[C@H](O)[C@@H]1O` [Example 59, (1R,2S,3R,5R)-3-[6-(1-benzyl-pyrrolidin-3(S)-ylamino)purin-9-yl]-5-hydroxymethylcyclopentane-1,2-diol], the melting point fell in the range of 100 to 102 °C.

`OC[C@H]1C[C@@H](n2cnc3c(N[C@H]4CCN(c5cc(Cl)ncn5)C4)ncnc32)[C@H](O)[C@@H]1O` [Example 45, (1R,2S,3R,5R)-3-[6-[1-(6-chloropyrimidin-4-yl)pyrrolidin-3(S)-ylamino]-purin-9-yl]-5-hydroxymethylcyclopentane-1,2-diol] showed a melting point of 180 to 182 °C.

Regarding `OC[C@H]1O[C@@H](n2cnc3c(N[C@@H]4CCN(c5ccc(C(F)(F)F)cn5)C4)ncnc32)[C@H](O)[C@@H]1O` (hydrate or solvate) [Example 4, (2R,3R,4S,5R)-5-hydroxymethyl-2-[6-[1-(5-trifluoromethylpyridin-2-yl)-pyrrolidin-3(R)-ylamino]purin-9-yl]tetrahydrofuran-3,4-diol], the melting point was 166 to 170 °C.

For `OC[C@H]1O[C@@H](n2cnc3c(NC4CCCN(c5ccc(C(F)(F)F)cn5)C4)ncnc32)[C@H](O)[C@@H]1O` (stereo partly drawn) [Example 13, (2R,3R,4S,5R)-5-hydroxymethyl-2-[6-(5′-trifluoromethyl-3,4,5,6-tetrahydro-2H-[1,2′]-bipyridinyl-3-ylamino)-purin-9-yl]tetrahydrofuran-3,4-diol], the melting point lay within 113 to 116 °C.
